{
  "source": "paper PMC6952399",
  "about": "“Structures of lipoprotein signal peptidase II from Staphylococcus aureus complexed with antibiotics globomycin and myxovirescin” (Nature Communications, 2020)",
  "key": {"LspA from E. coli": {"tested_on": "LspA from E. coli", "set-up": "method as in earlier work", "settings": "ref 7 (supplementary references); cited from earlier work"}, "LspMrs N52A": {"target": "T1, LspMrs N52A (Staphylococcus aureus, UniProt Q6GHN9, N52A)", "T1 construct": "MGSS-hexahistidine-SSGR-TEV site (ENLYFQ) (N, cleaved yes); made in house; host or cells: E. coli C43 (DE3)", "experiment": "Gel-shift peptidase assay, LspMrs N52A mutant", "assay_type": "biochemical, methicillin-resistant Staphylococcus aureus", "protocol": "LspA mutant genes (N52A, N52Q, G54A, G54P, R110A, R110K, D118N, N133A, N133Q and D136N) were obtained by site-directed mutagenesis of the wild-type lspA construct in pETDuet. Mutagenesis was performed using the Q5® Site-Directed Mutagenesis Kit (New England Biolabs) and specific primers are listed in Supplementary Table 5. The correct mutations were confirmed by sequencing (Eurofins Genomics). Expression and purification of all LspMrs wild-type and mutants for enzyme assays were performed as described above with the following modifications: TALON® Metal Affinity Resin (Clontech) was used for IMAC purification and the detergent DDM was used for membrane solubilisation and protein purification.\nThe peptidase activity of LspMrs and P. aeruginosa LspA (LspPae) was quantified in a coupled gel-shift assay developed previously for LspPae[5]. The P. aeruginosa lipoprotein pre-proICP and the first two enzymes in the bacterial lipoprotein processing pathway Lgt and LspA were expressed and purified, as described. For FRET assays LspMrs was expressed and purified as described above and LspPae was expressed and purified as described in a published protocol.\nGel-shift activity assay. […] Band intensities of ICP were quantified using Image Lab. […]"}},
  "data": [
    {"smiles": "CCCCCC[C@H]1OC(=O)CNC(=O)[C@H]([C@H](C)O)NC(=O)[C@H](CO)NC(=O)[C@H]([C@H](C)CC)NC(=O)[C@H](CC(C)C)N(C)C(=O)[C@@H]1C", "note": "[globomycin]", "values": [
      {"measurement": "inhibition type", "setting": "LspA from E. coli", "result": "non-competitive"},
      {"measurement": "IC50", "setting": "LspMrs N52A", "result": "1230 ± 590", "unit": "nM"}
    ]}
  ]
}
